# Values of other authors as cited in patent publication US12605340B2, “Extended release composition of 2-(2-Aminothiazol-4-yl)-N-[4-(2{[(2R)-2-hydroxy-2-phenylethyl] amino} ethyl) phenyl] acetamide” (Zim Laboratories Limited, priority 2020, dated 2026).
# Read-outs that look alike come from different tables or passages of the source.
smiles,measurement,setting,value
"Nc1nc(CC(=O)Nc2ccc(CCNC[C@H](O)c3ccccc3)cc2)cs1 [Mirabegron, 2(2-aminothiazol-4-yl)-N-[4-(2-{[(2R)-2-hydroxy2phenylethyl]amino}ethyl)phenyl] acetamide]",Solubility,in dimethyl sulfoxide,soluble
same,Solubility,in methanol,soluble
same,Solubility,in water,practically insoluble
